Data published in PMC5051066, “Pharmacokinetics of calycopterin and xanthmicrol, two polymethoxylated hydroxyflavones with anti-angiogenic activities from Dracocephalum kotschyi Bioss” (DARU Journal of Pharmaceutical Sciences, 2016).
Entries after “also recorded” stand apart in the source; their conditions may differ. Values belong to the compound of their own block, whether it stands above or below them.

Experiments:
[1] = Pharmacokinetic study after i.v. administration in rats (online SPE HPLC of plasma, two-compartment model); assay type: in vivo, male Wistar rats; settings: for t1/2 (biological half-life) / K12 (rate constant of transfer from the peripheral compartment into the central compartment) / K21 (rate constant of transfer from the central compartment into the peripheral compartment) / half-life / C0 / clearance / k el / Vd: i.v. bolus, 20 mg/kg; for t1/2 (biological half-life) / half-life / C0 / clearance / k el / Vd: plasma; for K12 (rate constant of transfer from the peripheral compartment into the central compartment) / K21 (rate constant of transfer from the central compartment into the peripheral compartment) / C0 / clearance / k el / Vd: two-compartment model; for half-life / C0 / clearance / k el / Vd: male, Wistar, rat, iv; for half-life: read-out: t1/2 (biological half-life) (converted); for C0: read-out: C0 (initial plasma concentration); for clearance: read-out: Cla (clearance rate of the central compartment) (converted); for k el: read-out: Kel (rate constant of elimination from the central compartment) (converted); for Vd: read-out: Vc (volume of distribution of the central compartment)
Procedure: Confirmation of calycopterin, xanthomicrol and circimaritin identity was carried out using HPLC analysis of purified compound compared to the material obtained from previous work and also IR spectroscopy. A HPLC method with online solid phase extraction was developed for the analysis of xanthomicrol and calycopterin in biological fluids (Fig. 1) using circimaritin as internal standard (IS). 100 μL of plasma and 10 μL of 500 μg/mL IS were mixed in a 2 mL microcentrifuge tube. 40 μL of 10 mg/mL ZnSO4 was added to the tube and the content was mixed. After addition of 200 μL acetonitrile, the tube was placed in an orbital shaker for 10 min. The samples were subsequently centrifuged at 14000 g for 10 min the supernatant was subjected to online extraction/HPLC analysis as follows:
At the start of every run, the sample injection valve and the sample extraction valve were switched to load position (Fig. 1). 250 μL of sample was injected into the sample loop of the sample injection valve. The valve was switched to the inject position which diverted the flow from the online SPE (solid phase extraction) solvent delivery pump (500 μL/min) through the sample loop which in turned carried the sample onto the online SPE column (3×15mm, ODS-2, 5 μm). After 2 min, the sample extraction valve was switched to inject position. This allowed the mobile phase from the analysis solvent delivery pump (1 mL/min) to wash any material retained by the online SPE system, onto the analytical column (4.6×150mm, ODS-2, 5 μm, Tracer Excell, Technochroma, Spain) for separation and measurement. The mobile phase pumped by online SPE solvent delivery pump consisted of acetonitrile:water (35:65) and the mobile phase pumped by the analysis solvent delivery pump was composed of acetonitrile:methanol:water:triethylamine (37:24:38.5:0.5). 16 min after the start of analysis, the mobile phase pumped by the analysis solvent delivery pump was switched to methanol:tetrahydrofurane:dichloromethane (80:10:10) for 3 min. This allowed for highly non-polar compounds retained by the SPE and analytical column to be flushed. Detection was at 263 nm.
All procedures involving animals were carried out after the approval and under the supervision of the Ethics Committee for Animal Expreiments of Iran University for Medical Sciences. In order to be able to withdraw blood samples at predefined time points during pharmacokinetic studies, femoral vein of male Wistar rats, in the weight range of 280 to 300 g, were catheterized, under anaesthesia, using the method described by Jespersen et al.. After the placement of the catheter, the animals were allowed to recover for 24 h, during which time, the rats were checked for signs of bleeding and the catheters were checked for patency.
Xanthomicrol or calycopterin was dissolved in 200 μL of dimethylsulfoxide (DMSO) and injected into the dorsal tail vein of rats. Just before drug injection (time zero) and at 1, 5, 10, 20, 60, 120 and 240 min after drug injection, 300 μL of blood were withdrawn via the femoral vein which had been catheterized previously. In order to prevent phlebotomy induced hypovolemia, 200 μL normal saline was injected via the femoral catheter after each blood sample withdrawal. Blood samples were centrifuged at 4 °C for 10 min at 4000 g. Plasma was collected and stored frozen at -80 °C until needed.
Pharmacokinetic parameters obtained from constructing the residual concentration verses time curve for these two-compartmental models are presented in Table 3. Rate constants for transfer between the central and peripheral compartments (K21and K12) and also the elimination process (Kel) were also calculated.

[2] = Predicted plasma concentration-time profiles from the two compartment models; settings: rat, single I.V. dose of 30 mg/kg, predicted from two compartment model
Procedure: Our aim in this work was to find doses of these flavonoids which could produce such plasma levels over extended periods. […] The models generated, were used to predict the plasma concentration-time profiles for different doses of calycopterin and xanthomicrol (Fig. 7). After a single I.V. dose of 30 mg/kg, xanthomicrol plasma concentration would be greater than 500 ng/mL for more than 6 h while calycopterin’s plasma concentration would dip below 500 ng/mL 30 min after administration.
Fig. 7 Predicted plasma calycopterin (●) and xanthomicrol (○) concentration-time profiles after a single IV bolus dose of 30 mg/kg or either compound in the rat. The values were calculated based upon the two compartment models developed in this work

Balb/C mice [3] = test: Toxicological study in mice: serum creatinin, ALT, AST (kidney and liver functions); assay type: in vivo; settings: for Serum ALT / Serum AST / Serum Creatinin: mice, I.P.
Procedure: (§1) Toxicity studies were carried out using Balb/C mice in the 25-30 g weight range. Drug administration was via the I.P. methoud. Animals were assigned to five groups of three: one-Control groups which received no treatment, two-Vehicle control which received 60 μL of DMSO (dimethyl sulfoxide) for 6 days, 3- Test group one which received 30 mg/kg body weight xanthomicrol in 60 μL of DMSO per day, 4- Test group two which received 40 mg/kg body weight xanthomicrol on 60 μL of DMSO per day and 5- Test group three which received 50 mg/kg body weight xanthomicrol on 60 μL of DMSO per day. The animals were weighed and examined for changes in skin tone, signs of fur loss and changes in bowl function. On the seventh day, the animals were anaesthetized under an atmosphere of chloroform. Once fully anaesthetized, blood samples were collected from the heart and the animals were killed by cervical dislocation. Serum samples were analyzed for hepatic enzymes AST and ALT [16] and also for creatinin levels. Kidneys, liver, lung, intestines and stomach were removed from animals and placed in 10 % formalin solution for subsequent paraffin embedding, sectioning, staining and histological studies. Tissue sections were examined for fibrotic, inflammatory and vascular changes by a qualified pathologist.

Balb/C mice [4] = test: Toxicological study in mice: tissue histology; assay type: in vivo
Procedure: as §1

Balb/C mice [5] = test: Toxicological study in mice: body weight, mortality, behaviour, overt toxicity; assay type: in vivo; settings: for toxic effects overall (behavioral, histological, biochemical): repeated administrations at administered doses (30, 40 and 50 mg/kg/day for six days)
Procedure: as §1

[6] = Solubility in water based solvent systems (vehicle selection); assay type: physicochemical
Procedure: A number of solvents which were able to dissolve xanthomicrol and calycopterin were investigated as vehicles for the delivery of these compounds into the blood stream. DMSO was chosen as it is relatively benign in terms of toxicological effects (a number of drug formulations or medical devices containing DMSO are marketed e.g., RIMSO-50 from Bioniche Pharma, USA and Dolicur from Schering, Germany). Also, the volume required as vehicle (200 μL) was small compared to total blood volume in rat (about 20 mL) and would be unlikely to have an appreciable effect on pharmacokinetics of flavonoids being studied.

HUVEC cell = test system: HUVEC cell; set-up: method as in PMID 24895220; settings: at 500 ng/mL; cited from earlier work
[7] = mice, 30, 40 or 50 mg/kg body weight
[8] = Test group 1 (30 mg/kg per day, I.P.), Lung/Liver/Heart/ Kidney, single animal
[9] = Test group 1 (30 mg/kg per day, I.P.), Small intestine/ Large intestine/ Gastric wall, single animals
[10] = Test group 2 (40 mg/kg per day, I.P.), Lung/Liver/Heart/ Kidney, single animals, listed as xanthimcrol, 40 mg/kg/day
[11] = Test group 2 (40 mg/kg per day, I.P.), Small intestine/ Large intestine/ Gastric wall, single animal
[12] = Test group 3 (50 mg/kg per day, I.P.), Lung/Liver/Heart/ Kidney, single animals
[13] = Test group 3 (50 mg/kg per day, I.P.), Lung/Liver/Heart/ Kidney, single animals, listed as xanthimcrol, 50 mg/kg/day
[14] = Test group 3 (50 mg/kg per day, I.P.), Small intestine/ Large intestine/ Gastric wall, single animal
[15] = mice, 30, 40 and 50 mg/kg/day for six days

Structure (SMILES): COc1c(OC)c(O)c2c(=O)cc(-c3ccc(O)cc3)oc2c1OC [Xanthomicrol, xanthomicrol]
t1/2 (biological half-life) [1]: 4.2 h
K12 (rate constant of transfer from the peripheral compartment into the central compartment) [1]: 1.88 h⁻¹
K21 (rate constant of transfer from the central compartment into the peripheral compartment) [1]: 0.46 h⁻¹
half-life [1]: ~4 h
C0 [1]: 2340 ng/mL
clearance [1]: 30 mL/min
k el [1]: 5.83e-05 s⁻¹
Vd [1]: 8.5 L
time for which plasma concentration would be greater than 500 ng/mL [2]: more than 6 h
difference in alanine transaminase (ALT) activity between control, vehicle and test groups (Balb/C mice [3]; [7]): no significant differences
difference in aspartic acid transaminase (AST) activity between control, vehicle and test groups (Balb/C mice [3]; [7]): no significant differences; also recorded: not significantly different
difference in serum creatinin content between control, vehicle and test groups (Balb/C mice [3]; [7]): no significant differences
Serum ALT (Balb/C mice [3]; 30 mg/kg per day for 6 days): 38 ± 8.8 IU/L
Serum AST (Balb/C mice [3]; 30 mg/kg per day for 6 days): 138 ± 37 IU/L
Serum ALT (Balb/C mice [3]; 40 mg/kg per day for 6 days): 22 ± 19 IU/L
Serum AST (Balb/C mice [3]; 40 mg/kg per day for 6 days): 130 ± 49 IU/L
Serum Creatinin (Balb/C mice [3]; 40 mg/kg per day for 6 days): 0.35 ± 0.036 mg/dL
Serum ALT (Balb/C mice [3]; 50 mg/kg per day for 6 days): 30 ± 3.0 IU/L
Serum AST (Balb/C mice [3]; 50 mg/kg per day for 6 days): 316 ± 163 IU/L
Serum Creatinin (Balb/C mice [3]; 50 mg/kg per day for 6 days): 0.39 ± 0.02 mg/dL
Fibrosin (Balb/C mice [4]; [8]): Absent
Inflammation structural change (Balb/C mice [4]; [8]): Absent
Notes (histology) (Balb/C mice [4]; [8]): Normal
Vascular change (Balb/C mice [4]; [8]): None
Fibrosin (Balb/C mice [4]; [9]): Absent
Inflammation structural change (Balb/C mice [4]; [9]): Absent
Notes (histology) (Balb/C mice [4]; [9]): Normal
Vascular change (Balb/C mice [4]; [9]): None
Fibrosin (Balb/C mice [4]; Test group 2 (40 mg/kg per day, I.P.), Lung/Liver/Heart/ Kidney, single animals): Absent
Inflammation structural change (Balb/C mice [4]; [10]): Lymphocyte infilteration in lung sample, Subcapsular inflammation in liver sample; also recorded: Focal inflammation in lung tissue
Notes (histology) (Balb/C mice [4]; [10]): Normal; also recorded: Increased type II pneumocytes
Vascular change (Balb/C mice [4]; [10]): Hypermic; also recorded: Increased vascularization in lung sample
Fibrosin (Balb/C mice [4]; [11]): Absent
Inflammation structural change (Balb/C mice [4]; [11]): Absent
Notes (histology) (Balb/C mice [4]; [11]): Normal
Vascular change (Balb/C mice [4]; [11]): None
Fibrosin (Balb/C mice [4]; [12]): Absent
Vascular change (Balb/C mice [4]; [12]): None
Inflammation structural change (Balb/C mice [4]; [13]): Focal inflammation in lung sample; also recorded: Absent
Notes (histology) (Balb/C mice [4]; [13]): Increased type II pneumocytes; also recorded: Normal
Fibrosin (Balb/C mice [4]; [14]): Absent
Inflammation structural change (Balb/C mice [4]; [14]): Absent
Vascular change (Balb/C mice [4]; [14]): None
Histological examination of tissue samples compared to the control group (Balb/C mice [4]; [15]): absence of significant pathological change; also recorded: unable to find xenobiotic induced damage to vital organs
change in animal weights compared to control group (Balb/C mice [5]; [15]): no change in animal weights
motor or behavioral abnormalities (Balb/C mice [5]; [15]): no animal showed any signs of motor or behavioral abnormalities
toxic effects overall (behavioral, histological, biochemical) (Balb/C mice [5]; mice): did not appear to have toxic effects
toxic effects overall (behavioral, histological, biochemical) (Balb/C mice [5]; mice, listed as xanthomicrol): failed to show any behavioral, histological and biochemical adverse effects
weight of animals (Balb/C mice [5]; mice, xanthomicrol groups, control group 27.1 g ± 1.2): 27.7 ± 1.7 g
acute toxic effects (Balb/C mice [5]; mouse, in vivo): appears not to have acute toxic effects
solubility in water based solvent systems [6]: do not dissolve in water based solvent systems
effect on capillary-like tube formation (HUVEC cell): inhibited capillary-like tube formation

volume of distribution of calycopterin relative to xanthomicrol ([1]; i.v.): about 8 times
t1/2 (biological half-life) [1]: 3.8 h
K12 (rate constant of transfer from the peripheral compartment into the central compartment) [1]: 1.39 h⁻¹
K21 (rate constant of transfer from the central compartment into the peripheral compartment) [1]: 0.52 h⁻¹
half-life [1]: ~4 h
C0 [1]: 312 ng/mL
clearance [1]: 280 mL/min
k el [1]: 7.22e-05 s⁻¹
Vd [1]: 63.9 L
time after administration at which plasma concentration would dip below 500 ng/mL [2]: 30 min
Structure (SMILES): COc1c(OC)c(O)c2c(=O)c(OC)c(-c3ccc(O)cc3)oc2c1OC [Calycopterin, calycopterin]
solubility in water based solvent systems [6]: do not dissolve in water based solvent systems
effect on capillary-like tube formation (HUVEC cell): inhibited capillary-like tube formation
